From patent US20260069722A1, “COMPOSITION FOR FLUORESCENT LABELING, FLUORESCENT PROBE, INJECTION AGENT, SYRINGE FILLING, MEDICAL APPARATUS, MEDICAL FIBER MATERIAL, METHOD FOR PRODUCING COMPOSITION FOR FLUORESCENT LABELING, AND METHOD FOR PRODUCING MEDICAL FIBER MATERIAL” (VITA CORPORATION, priority 2022, published 2026)

Assay: mixing and kneading of ICG pigment with resin, compression molding
Type: physicochemical
Details: pigment (ICG in glycerol) 1 to 7 phr kneaded with PP, PVC, LDPE, EVA, TPU at 140 to 170 degrees Celsius
Method: Pigment (ICG plus solvent) was mixed and kneaded with various types of resin, and then it was verified whether or not a sheet could be manufactured by compression molding.
As the various types of resin, five types were prepared, which include polypropylene (PP), polyvinyl chloride (PVC), low-density polyethylene (LDPE), ethylene-vinyl acetate copolymer resin (EVA), and thermoplastic polyurethane (TPU). As the pigment, viscous liquid was used in which […] 25 mg of ICG were mixed and dissolved with 10 ml of glycerol.
In addition, four patterns, i.e., 1 phr, 3 phr, 5 phr, and 7 phr of the above pigment were prepared. Note that phr is abbreviation of per hundred resin, which is a unit expressing a ratio of pigment mixed in resin whose weight is 100. For instance, if A g of pigment is in 100 g of resin, the pigment ratio can be said to be A (phr).
The resin was charged into a mixer that had been preheated, and was kneaded until it was plasticized. As the above mixer, Laboplast mill 4 M150 manufactured by Toyo Seiki Seisaku-sho, Ltd. was used. Note that “Laboplast mill” is a registered trademark of Toyo Seiki Seisaku-sho, Ltd. This step was performed for each resin prepared in advance. Mixing and kneading was performed for five minutes at temperature set for each resin. […]

For CC1(C)C(/C=C/C=C/C=C/C=C2\N(CCCCS(=O)(=O)[O-])c3ccc4ccccc4c3C2(C)C)=[N+](CCCCS(=O)(=O)[O-])c2ccc3ccccc3c21.[Na+] [ICG, indocyanine green], the “thermal degradation due to mixing and kneading” value was “thermal degradation of ICG due to mixing and kneading can be suppressed”.
